According to patent publication US20100292188A1, “Compounds Comprising A Cyclobutoxy Group” (UCB PHARMA S.A., priority 2008, published 2010):

Compound	melting point [°C]
CC(C)(C)OC(=O)N1CCc2nc(-c3ccc(O[C@H]4C[C@H](N5CCCCC5)C4)cc3)sc2C1 [Compound 3, tert-butyl 2-{4-[(trans-3-piperidin-1-ylcyclobutyl)oxy]phenyl}-6,7-dihydro[1,3]thiazolo[5,4-c]pyridine-5(4H)-carboxylate]	162.3
CC(=O)N1CCc2oc(-c3ccc(O[C@H]4C[C@H](N5CCCCC5)C4)cc3)nc2C1 [Compound 28, 5-acetyl-2-{4-[(trans-3-piperidin-1-ylcyclobutyl)oxy]phenyl}-4,5,6,7-tetrahydro[1,3]oxazolo[4,5-c]pyridine]	141.9
NC(=O)CC(=O)N1CCc2nc(-c3ccc(O[C@H]4C[C@H](N5CCCCC5)C4)cc3)sc2C1 [Compound 25, 3-oxo-3-[2-{4-[(trans-3-piperidin-1-ylcyclobutyl)oxy]phenyl}-6,7-dihydro[1,3]thiazolo[5,4-c]pyridin-5(4H)-yl]propanamide]	176
CC(=O)N1CCc2nc(-c3ccc(O[C@H]4C[C@H](N5CCCCCC5)C4)cc3)sc2C1 [Compound 19, 5-acetyl-2-{4-[(trans-3-azepan-1-ylcyclobutyl)oxy]phenyl}-4,5,6,7-tetrahydro[1,3]thiazolo[5,4-c]pyridine]	135
OCCN1CCc2nc(-c3ccc(O[C@H]4C[C@H](N5CCCCC5)C4)cc3)sc2C1 [Compound 37, 2-[2-{4-[(trans-3-piperidin-1-ylcyclobutyl)oxy]phenyl}-6,7-dihydro[1,3]thiazolo[5,4-c]pyridin-5(4H)-yl]ethanol]	142
CC(=O)N1CCc2nc(-c3ccc(O[C@H]4C[C@H](N5CCOCC5)C4)cc3)sc2C1 [Compound 8, 5-acetyl-2-{4-[(trans-3-morpholin-4-ylcyclobutyl)oxy]phenyl}-4,5,6,7-tetrahydro[1,3]thiazolo[5,4-c]pyridine]	161.6 to 162.2
CC(=O)N1CCc2sc(-c3ccc(O[C@H]4C[C@H](N5CCCCC5)C4)cc3)nc2C1 [Compound 29, 5-acetyl-2-{4-[(trans-3-piperidin-1-ylcyclobutyl)oxy]phenyl}-4,5,6,7-tetrahydro[1,3]thiazolo[4,5-c]pyridine]	154.2
O=C(CCCN1CC[S+]([O-])CC1)N1CCc2nc(-c3ccc(O[C@H]4C[C@H](N5CCCCC5)C4)cc3)sc2C1 [Compound 41, 5-[4-(1-oxidothiomorpholin-4-yl)butanoyl]-2-{4-[(trans-3-piperidin-1-ylcyclobutyl)oxy]phenyl}-4,5,6,7-tetrahydro[1,3]thiazolo[5,4-c]pyridine]	165
COCC(=O)N1CCc2nc(-c3ccc(O[C@H]4C[C@H](N5CCCCC5)C4)cc3)sc2C1 [Compound 2, 5-(methoxyacetyl)-2-{4-[(trans-3-piperidin-1-ylcyclobutyl)oxy]phenyl}-4,5,6,7-tetrahydro[1,3]thiazolo[5,4-c]pyridine]	128
CC(=O)N1CCc2nc(-c3ccc(O[C@H]4C[C@H](N5CCSCC5)C4)cc3)sc2C1 [Compound 22, 5-acetyl-2-{4-[(trans-3-thiomorpholin-4-ylcyclobutyl)oxy]phenyl}-4,5,6,7-tetrahydro[1,3]thiazolo[5,4-c]pyridine]	196
Cc1n[nH]nc1C(=O)N1CCc2nc(-c3ccc(O[C@H]4C[C@H](N5CCCCC5)C4)cc3)sc2C1 [Compound 35, 5-[(5-methyl-2H-1,2,3-triazol-4-yl)carbonyl]-2-{4-[(trans-3-piperidin-1-ylcyclobutyl)oxy]phenyl}-4,5,6,7-tetrahydro[1,3]thiazolo[5,4-c]pyridine]	150 to 154
OC[C@H](O)CN1CCc2nc(-c3ccc(O[C@H]4C[C@H](N5CCCCC5)C4)cc3)sc2C1 [Compound 17, (2R)-3-[2-{4-[(trans-3-piperidin-1-ylcyclobutyl)oxy]phenyl}-6,7-dihydro[1,3]thiazolo[5,4-c]pyridin-5(4H)-yl]propane-1,2-diol]	172
CC(=O)NCCC(=O)N1CCc2nc(-c3ccc(O[C@H]4C[C@H](N5CCCCC5)C4)cc3)sc2C1 [Compound 42, N-{3-oxo-3-[2-{4-[(trans-3-piperidin-1-ylcyclobutyl)oxy]phenyl}-6,7-dihydro[1,3]thiazolo[5,4-c]pyridin-5(4H)-yl]propyl}acetamide]	144
CC(=O)N1CCCCc2nc(-c3ccc(O[C@H]4C[C@H](N5CCCCC5)C4)cc3)sc21 [Compound 31, 4-acetyl-2-{4-[(trans-3-piperidin-1-ylcyclobutyl)oxy]phenyl}-5,6,7,8-tetrahydro-4H-[1,3]thiazolo[5,4-b]azepine]	49
COC(=O)CN1CCc2nc(-c3ccc(O[C@H]4C[C@H](N5CCCCC5)C4)cc3)sc2C1 [Compound 26, methyl [2-{4-[(trans-3-piperidin-1-ylcyclobutyl)oxy]phenyl}-6,7-dihydro[1,3]thiazolo[5,4-c]pyridin-5(4H)-yl]acetate]	221
O=C(C(O)C(F)(F)F)N1CCc2nc(-c3ccc(O[C@H]4C[C@H](N5CCCCC5)C4)cc3)sc2C1 (stereo partly drawn) [Compound 44, 1,1,1-trifluoro-3-oxo-3-[2-{4-[(trans-3-piperidin-1-ylcyclobutyl)oxy]phenyl}-6,7-dihydro[1,3]thiazolo[5,4-c]pyridin-5(4H)-yl]propan-2-ol]	147 to 148
c1cc2sc(-c3ccc(O[C@H]4C[C@H](N5CCCCC5)C4)cc3)nc2cn1 [Compound 32, 2-{4-[(trans-3-piperidin-1-ylcyclobutyl)oxy]phenyl}[1,3]thiazolo[4,5-c]pyridine]	65
NC(=O)CN1CCc2nc(-c3ccc(O[C@H]4C[C@H](N5CCCCC5)C4)cc3)sc2C1 [Compound 18, 2-[2-{4-[(trans-3-piperidin-1-ylcyclobutyl)oxy]phenyl}-6,7-dihydro[1,3]thiazolo[5,4-c]pyridin-5(4H)-yl]acetamide]	231
CC(=O)N1CCc2nc(-c3ccc(O[C@H]4C[C@H](N5CCN(C(C)C)CC5)C4)cc3)sc2C1 [Compound 12, 5-acetyl-2-(4-{[trans-3-(4-isopropylpiperazin-1-yl)cyclobutyl]oxy}phenyl)-4,5,6,7-tetrahydro[1,3]thiazolo[5,4-c]pyridine]	109
CC(=O)N1CCc2nc(-c3ccc(O[C@H]4C[C@H](N5CCC(F)(F)CC5)C4)cc3)sc2C1 [Compound 13, 5-acetyl-2-(4-{[trans-3-(4,4-difluoropiperidin-1-yl)cyclobutyl]oxy}phenyl)-4,5,6,7-tetrahydro[1,3]thiazolo[5,4-c]pyridine]	175
O=C(N1CCOCC1)N1CCc2nc(-c3ccc(O[C@H]4C[C@H](N5CCCCC5)C4)cc3)sc2C1 [Compound 6, 5-(morpholin-4-ylcarbonyl)-2-{4-[(trans-3-piperidin-1-ylcyclobutyl)oxy]phenyl}-4,5,6,7-tetrahydro[1,3]thiazolo[5,4-c]pyridine]	149.3
O=C(CO)N1CCc2nc(-c3ccc(O[C@H]4C[C@H](N5CCCCC5)C4)cc3)sc2C1 [Compound 11, 2-oxo-2-[2-{4-[(trans-3-piperidin-1-ylcyclobutyl)oxy]phenyl}-6,7-dihydro[1,3]thiazolo[5,4-c]pyridin-5(4H)-yl]ethanol]	177
